# Data taken from ChEMBL document CHEMBL3132769, “Fragment growing to retain or alter the selectivity of anchored kinase hinge-binding fragments” (Medchemcomm, 2014).
# How the values were obtained:
# [1] = target: Dual specificity tyrosine-phosphorylation-regulated kinase 1A (Rattus norvegicus) (UniProt Q63470); assay: Inhibition of rat full length DYRK1a expressed in Escherichia coli cell assessed as substrate phosphorylation using fluorescence-labelled peptides as substrate at 0.2 uM after 90 mins by microfluidic peptide phosphorylation assay
# [2] = target: Protein kinase C beta type (Homo sapiens) (UniProt P05771); assay: Inhibition of human full length PKC beta2 expressed in baculovirus assessed as substrate phosphorylation using fluorescence-labelled peptides as substrate at 420 uM after 90 mins by microfluidic peptide phosphorylation assay
# Protein kinase C beta type (Homo sapiens), sequence (P05771 2-671 limits assumed): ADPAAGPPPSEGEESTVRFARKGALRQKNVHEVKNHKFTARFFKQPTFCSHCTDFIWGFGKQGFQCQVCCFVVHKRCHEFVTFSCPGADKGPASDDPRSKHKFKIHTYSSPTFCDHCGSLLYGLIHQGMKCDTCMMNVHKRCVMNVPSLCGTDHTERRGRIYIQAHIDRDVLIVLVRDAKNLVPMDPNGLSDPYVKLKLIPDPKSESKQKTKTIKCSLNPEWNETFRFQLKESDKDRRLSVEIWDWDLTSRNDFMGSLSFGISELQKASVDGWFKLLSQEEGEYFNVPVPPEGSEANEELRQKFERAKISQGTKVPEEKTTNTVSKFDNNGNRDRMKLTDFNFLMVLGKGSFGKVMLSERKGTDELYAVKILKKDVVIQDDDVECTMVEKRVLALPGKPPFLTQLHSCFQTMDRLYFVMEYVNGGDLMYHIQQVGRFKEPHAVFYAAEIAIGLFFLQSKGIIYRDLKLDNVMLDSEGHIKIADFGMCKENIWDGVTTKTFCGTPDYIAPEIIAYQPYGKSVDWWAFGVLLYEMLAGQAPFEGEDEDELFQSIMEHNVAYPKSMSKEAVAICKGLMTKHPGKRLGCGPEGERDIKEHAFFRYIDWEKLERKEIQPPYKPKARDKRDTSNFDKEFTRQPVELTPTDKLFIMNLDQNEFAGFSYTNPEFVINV
# [3] = system: T1, Receptor-type tyrosine-protein kinase FLT3 (Homo sapiens), P36888 [D835Y]; assay: Inhibition of human FLT3 D835Y mutant catalytic domain expressed in baculovirus assessed as substrate phosphorylation using fluorescence-labelled peptides as substrate at 9 uM after 90 mins by microfluidic peptide phosphorylation assay
# T1 sequence (whole entry): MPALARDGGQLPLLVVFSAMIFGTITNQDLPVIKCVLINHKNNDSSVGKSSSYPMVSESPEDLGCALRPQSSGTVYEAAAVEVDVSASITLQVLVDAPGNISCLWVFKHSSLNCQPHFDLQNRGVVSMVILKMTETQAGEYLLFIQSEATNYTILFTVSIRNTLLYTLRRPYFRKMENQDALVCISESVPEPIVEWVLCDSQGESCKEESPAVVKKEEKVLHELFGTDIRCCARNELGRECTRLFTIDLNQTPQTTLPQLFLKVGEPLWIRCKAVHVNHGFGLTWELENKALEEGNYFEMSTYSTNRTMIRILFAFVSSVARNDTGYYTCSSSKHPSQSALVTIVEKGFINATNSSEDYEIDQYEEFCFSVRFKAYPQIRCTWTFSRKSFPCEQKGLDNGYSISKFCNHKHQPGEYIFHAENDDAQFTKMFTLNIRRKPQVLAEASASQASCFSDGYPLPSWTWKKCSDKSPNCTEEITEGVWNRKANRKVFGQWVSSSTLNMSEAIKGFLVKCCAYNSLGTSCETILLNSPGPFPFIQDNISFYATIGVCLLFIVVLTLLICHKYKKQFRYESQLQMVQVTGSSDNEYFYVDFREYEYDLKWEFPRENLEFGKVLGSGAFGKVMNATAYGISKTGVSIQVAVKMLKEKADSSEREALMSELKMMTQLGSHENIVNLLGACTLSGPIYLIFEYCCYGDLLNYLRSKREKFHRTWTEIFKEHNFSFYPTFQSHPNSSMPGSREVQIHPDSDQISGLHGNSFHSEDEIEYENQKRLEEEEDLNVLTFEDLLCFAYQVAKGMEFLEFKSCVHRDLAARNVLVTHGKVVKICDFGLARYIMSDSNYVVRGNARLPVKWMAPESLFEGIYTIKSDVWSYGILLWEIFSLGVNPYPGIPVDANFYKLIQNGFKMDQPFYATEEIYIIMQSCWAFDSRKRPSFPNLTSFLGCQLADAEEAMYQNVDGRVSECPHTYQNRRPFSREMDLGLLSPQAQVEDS
# [4] = target: Protein kinase C beta type (Homo sapiens) (UniProt P05771); assay: Inhibition of human full length PKC beta2 expressed in baculovirus assessed as substrate phosphorylation using fluorescence-labelled peptides as substrate at 2 uM after 90 mins by microfluidic peptide phosphorylation assay
# [5] = target: T2, Mitogen-activated protein kinase 12 (Homo sapiens) (UniProt P53778); assay: Inhibition of human full length p38 gamma expressed in Escherichia coli cell assessed as substrate phosphorylation using fluorescence-labelled peptides as substrate at 0.1 uM after 90 mins by microfluidic peptide phosphorylation assay
# T2 sequence (whole entry): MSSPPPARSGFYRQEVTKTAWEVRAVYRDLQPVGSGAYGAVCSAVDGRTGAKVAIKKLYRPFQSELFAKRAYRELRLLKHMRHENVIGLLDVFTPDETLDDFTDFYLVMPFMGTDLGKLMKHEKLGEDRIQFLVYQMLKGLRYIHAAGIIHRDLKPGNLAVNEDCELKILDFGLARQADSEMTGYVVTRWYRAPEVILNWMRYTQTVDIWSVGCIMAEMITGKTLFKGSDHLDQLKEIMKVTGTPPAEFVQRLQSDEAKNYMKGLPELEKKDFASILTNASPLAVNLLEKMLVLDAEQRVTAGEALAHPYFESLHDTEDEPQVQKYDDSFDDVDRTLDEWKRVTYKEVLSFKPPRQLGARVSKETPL
# [6] = target: Insulin-like growth factor 1 receptor (Homo sapiens) (UniProt P08069); assay: Inhibition of human IGF1R catalytic domain expressed in baculovirus assessed as substrate phosphorylation using fluorescence-labelled peptides as substrate at 95 uM after 90 mins by microfluidic peptide phosphorylation assay
# [7] = target: Protein kinase C delta type (Homo sapiens) (UniProt Q05655); assay: Inhibition of human truncated PKC delta expressed in baculovirus assessed as substrate phosphorylation using fluorescence-labelled peptides as substrate at 95 uM after 90 mins by microfluidic peptide phosphorylation assay
# Protein kinase C delta type (Homo sapiens), sequence (Q05655 whole entry, looked up, the tested form may be a part): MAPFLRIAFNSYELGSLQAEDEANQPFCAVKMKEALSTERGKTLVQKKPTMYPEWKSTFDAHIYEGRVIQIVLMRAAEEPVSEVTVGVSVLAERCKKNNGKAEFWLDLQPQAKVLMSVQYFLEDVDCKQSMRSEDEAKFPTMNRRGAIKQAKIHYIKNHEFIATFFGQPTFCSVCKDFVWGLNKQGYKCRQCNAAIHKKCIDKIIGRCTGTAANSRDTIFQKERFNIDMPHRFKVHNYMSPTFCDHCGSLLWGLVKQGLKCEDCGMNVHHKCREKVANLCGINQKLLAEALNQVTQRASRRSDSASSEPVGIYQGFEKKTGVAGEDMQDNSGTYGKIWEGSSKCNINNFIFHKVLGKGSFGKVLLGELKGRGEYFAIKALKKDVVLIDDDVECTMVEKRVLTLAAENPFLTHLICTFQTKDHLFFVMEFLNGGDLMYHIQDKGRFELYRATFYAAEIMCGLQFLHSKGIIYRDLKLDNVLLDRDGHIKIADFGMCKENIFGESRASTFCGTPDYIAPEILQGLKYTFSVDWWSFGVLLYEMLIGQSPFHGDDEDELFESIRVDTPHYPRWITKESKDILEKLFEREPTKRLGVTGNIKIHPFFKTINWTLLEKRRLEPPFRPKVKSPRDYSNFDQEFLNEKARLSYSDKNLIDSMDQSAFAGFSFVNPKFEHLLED
# [8] = target: Mitogen-activated protein kinase 14 (Homo sapiens) (UniProt Q16539); assay: Inhibition of human truncated p38 alpha expressed in Escherichia coli cell assessed as substrate phosphorylation using fluorescence-labelled peptides as substrate at […] after 90 mins by microfluidic peptide phosphorylation assay
# Mitogen-activated protein kinase 14 (Homo sapiens), sequence (Q16539 whole entry, the tested form may be a part): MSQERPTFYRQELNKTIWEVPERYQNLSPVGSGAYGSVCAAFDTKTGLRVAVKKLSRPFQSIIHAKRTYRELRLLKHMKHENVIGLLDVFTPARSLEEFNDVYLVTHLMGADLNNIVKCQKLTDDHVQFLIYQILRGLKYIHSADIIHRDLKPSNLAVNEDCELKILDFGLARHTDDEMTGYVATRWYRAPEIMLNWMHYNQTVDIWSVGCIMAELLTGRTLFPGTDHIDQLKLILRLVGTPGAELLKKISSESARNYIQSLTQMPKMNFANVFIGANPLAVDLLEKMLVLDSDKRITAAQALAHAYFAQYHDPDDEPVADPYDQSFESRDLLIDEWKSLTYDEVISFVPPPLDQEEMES
# [9] = target: Tyrosine-protein kinase Fer (Homo sapiens) (UniProt P16591); assay: Inhibition of human FER catalytic domain expressed in baculovirus assessed as substrate phosphorylation using fluorescence-labelled peptides as substrate at […] after 90 mins by microfluidic peptide phosphorylation assay
# [10] = target: Protein kinase C alpha type (Homo sapiens) (UniProt P17252); assay: Inhibition of human truncated PKC alpha expressed in baculovirus assessed as substrate phosphorylation using fluorescence-labelled peptides as substrate at 0.06 uM after 90 mins by microfluidic peptide phosphorylation assay
# [11] = target: Tyrosine-protein kinase ABL2 (Homo sapiens) (UniProt P42684); assay: Inhibition of human truncated Arg expressed in baculovirus assessed as substrate phosphorylation using fluorescence-labelled peptides as substrate at 8 uM after 90 mins by microfluidic peptide phosphorylation assay
# Tyrosine-protein kinase ABL2 (Homo sapiens), sequence (P42684 whole entry, the tested form may be a part): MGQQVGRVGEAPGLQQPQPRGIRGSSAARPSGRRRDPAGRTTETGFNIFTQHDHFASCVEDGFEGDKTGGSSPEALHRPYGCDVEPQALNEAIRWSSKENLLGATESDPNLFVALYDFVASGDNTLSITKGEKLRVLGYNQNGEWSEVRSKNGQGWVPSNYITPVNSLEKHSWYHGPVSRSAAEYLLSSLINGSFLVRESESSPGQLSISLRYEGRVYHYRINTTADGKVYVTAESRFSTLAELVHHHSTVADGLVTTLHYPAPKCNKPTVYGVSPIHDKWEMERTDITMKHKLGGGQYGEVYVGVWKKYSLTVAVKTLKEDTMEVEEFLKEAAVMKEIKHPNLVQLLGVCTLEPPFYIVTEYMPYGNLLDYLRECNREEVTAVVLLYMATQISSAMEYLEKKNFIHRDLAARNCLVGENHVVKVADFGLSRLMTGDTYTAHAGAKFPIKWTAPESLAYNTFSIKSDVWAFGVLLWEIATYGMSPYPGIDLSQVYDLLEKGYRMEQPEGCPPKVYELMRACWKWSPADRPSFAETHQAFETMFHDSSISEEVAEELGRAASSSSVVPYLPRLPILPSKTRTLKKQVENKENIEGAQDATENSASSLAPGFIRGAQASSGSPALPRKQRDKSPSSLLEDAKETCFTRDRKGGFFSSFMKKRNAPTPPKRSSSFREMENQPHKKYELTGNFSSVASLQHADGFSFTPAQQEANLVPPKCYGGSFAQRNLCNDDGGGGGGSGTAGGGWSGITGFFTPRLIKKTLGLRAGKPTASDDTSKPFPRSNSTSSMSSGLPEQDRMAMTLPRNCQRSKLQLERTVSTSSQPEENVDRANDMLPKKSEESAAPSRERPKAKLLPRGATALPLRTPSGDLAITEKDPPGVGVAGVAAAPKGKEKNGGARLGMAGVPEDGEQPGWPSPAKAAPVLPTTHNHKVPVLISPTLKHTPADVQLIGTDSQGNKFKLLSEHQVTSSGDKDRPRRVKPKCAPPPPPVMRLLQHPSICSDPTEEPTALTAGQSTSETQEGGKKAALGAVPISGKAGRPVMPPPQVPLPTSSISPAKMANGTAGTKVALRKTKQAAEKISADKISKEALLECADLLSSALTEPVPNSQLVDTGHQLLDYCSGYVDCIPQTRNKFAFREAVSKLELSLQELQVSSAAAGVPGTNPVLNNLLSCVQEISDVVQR
# [12] = target: Calcium/calmodulin-dependent protein kinase type II subunit delta (Homo sapiens) (UniProt Q13557); assay: Inhibition of human full length CAMK2D expressed in baculovirus assessed as substrate phosphorylation using fluorescence-labelled peptides as substrate at 70 uM after 90 mins by microfluidic peptide phosphorylation assay
# Calcium/calmodulin-dependent protein kinase type II subunit delta (Homo sapiens), sequence (Q13557 whole entry, the tested form may be a part): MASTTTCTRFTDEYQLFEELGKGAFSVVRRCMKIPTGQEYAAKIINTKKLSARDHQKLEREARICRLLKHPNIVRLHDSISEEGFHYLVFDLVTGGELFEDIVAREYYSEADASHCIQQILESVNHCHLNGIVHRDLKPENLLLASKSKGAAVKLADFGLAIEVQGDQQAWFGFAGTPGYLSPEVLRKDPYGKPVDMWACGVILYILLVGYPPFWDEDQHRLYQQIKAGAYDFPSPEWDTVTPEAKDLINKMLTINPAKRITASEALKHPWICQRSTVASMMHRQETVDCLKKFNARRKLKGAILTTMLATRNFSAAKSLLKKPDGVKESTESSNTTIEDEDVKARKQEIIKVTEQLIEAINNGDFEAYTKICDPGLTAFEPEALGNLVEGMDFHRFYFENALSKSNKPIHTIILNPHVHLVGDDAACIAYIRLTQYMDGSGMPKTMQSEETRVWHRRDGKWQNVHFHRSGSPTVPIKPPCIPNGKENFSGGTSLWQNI
# [13] = target: Protein kinase C beta type (Homo sapiens) (UniProt P05771); assay: Inhibition of human truncated PKC beta1 expressed in baculovirus assessed as substrate phosphorylation using fluorescence-labelled peptides as substrate at 70 uM after 90 mins by microfluidic peptide phosphorylation assay
# [14] = target: Ribosomal protein S6 kinase alpha-5 (Homo sapiens) (UniProt O75582); assay: Inhibition of human full length MSK1 expressed in baculovirus assessed as substrate phosphorylation using fluorescence-labelled peptides as substrate at 1000 uM after 90 mins by microfluidic peptide phosphorylation assay
# Ribosomal protein S6 kinase alpha-5 (Homo sapiens), sequence (O75582 whole entry, looked up): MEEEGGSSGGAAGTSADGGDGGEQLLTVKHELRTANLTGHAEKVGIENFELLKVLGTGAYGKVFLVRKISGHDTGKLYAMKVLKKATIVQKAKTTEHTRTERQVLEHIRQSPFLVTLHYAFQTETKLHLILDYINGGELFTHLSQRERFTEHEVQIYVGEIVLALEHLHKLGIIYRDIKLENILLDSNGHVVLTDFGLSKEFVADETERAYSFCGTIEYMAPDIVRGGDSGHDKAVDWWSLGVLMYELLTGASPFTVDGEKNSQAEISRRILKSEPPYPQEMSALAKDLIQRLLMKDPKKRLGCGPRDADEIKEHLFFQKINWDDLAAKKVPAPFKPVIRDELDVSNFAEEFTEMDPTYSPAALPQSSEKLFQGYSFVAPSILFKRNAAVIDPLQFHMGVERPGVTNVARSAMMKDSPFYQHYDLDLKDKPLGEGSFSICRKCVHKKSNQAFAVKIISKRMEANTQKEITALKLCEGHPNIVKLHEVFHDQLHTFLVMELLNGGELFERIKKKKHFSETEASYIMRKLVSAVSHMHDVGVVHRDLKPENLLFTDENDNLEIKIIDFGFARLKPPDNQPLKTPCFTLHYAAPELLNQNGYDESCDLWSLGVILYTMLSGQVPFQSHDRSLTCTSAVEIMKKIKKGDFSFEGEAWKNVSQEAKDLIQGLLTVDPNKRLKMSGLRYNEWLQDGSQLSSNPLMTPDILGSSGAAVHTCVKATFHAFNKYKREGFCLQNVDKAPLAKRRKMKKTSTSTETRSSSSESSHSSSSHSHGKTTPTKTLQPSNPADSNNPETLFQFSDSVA
structure (smiles),measurement,setting,value
Clc1ccc(C2(c3ccc(-c4ncnc5[nH]cnc45)cc3)CCNCC2)cc1,inhibition,[1],11%
c1nc(N2CCOCC2)c2nc[nH]c2n1,inhibition,[2],38%
NCC1CN(c2ncnc3[nH]c4cnccc4c23)CCO1 (centres undefined),inhibition,[3],95%
NC1CCN(c2ncnc3[nH]ccc23)CC1,inhibition,[4],62.5%
C[C@H](CN(C)C)Oc1nc(Nc2cc3cccc(Cl)c3cn2)cnc1C#N,inhibition,[5],5.5%
NCCc1ccc(-c2ncnc3[nH]cnc23)cc1,inhibition,[6],20.5%
same,inhibition,[7],72%
COC(=O)c1cnc(Nc2cnc(C#N)cn2)cc1NCC1CCNCC1,inhibition,[8],2%
same,inhibition,[9],1%
NC1(Cc2ccc(Cl)cc2)CCN(c2ncnc3[nH]ccc23)CC1,inhibition,[10],30%
NCC1CCN(c2ncnc3[nH]ccc23)CC1,inhibition,[11],3.5%
CNCc1ccc(-c2ncnc3[nH]cnc23)cc1,inhibition,[12],17.5%
same,inhibition,[13],73.5%
c1cnc2[nH]ccc2c1,inhibition,[14],87%
